Values joined by “and” are separate entries in the source; they are usually repeats but may differ in a detail not shown here. Identical values can stand only once. ± gives the expanded uncertainty stated by the source.
Conditions: for surface tension liquid-gas: Drop volume; for viscosity / speed of sound / mass density / vapor or sublimation pressure: Liquid; for viscosity: Capillary tube (Ostwald / Ubbelohde) method; for speed of sound: Frequency=3 MHz, Single path-length method; for mass density: Vibrating tube method; for vapor or sublimation pressure: Ebulliometric method (Recirculating still)

CCc1cccs1 [2-ethylthiophene]
Conditions | surface tension liquid-gas [mN/m] | vapor or sublimation pressure [kPa]
278.15 K | 32.36 ± 0.3 | –
280.65 K | 32.11 ± 0.3 | –
283.15 K | 31.8 ± 0.3 | –
285.65 K | 31.55 ± 0.3 | –
288.15 K | 31.24 ± 0.29 | –
290.65 K | 30.98 ± 0.29 | –
292.41 K | – | 0.8 ± 0.1
293.15 K | 30.66 ± 0.29 | –
293.45 K | – | 0.84 ± 0.1
295.65 K | 30.44 ± 0.29 | –
296.81 K | – | 1.03 ± 0.1
298.04 K | – | 1.145 ± 0.1
298.15 K | 30.1 ± 0.29 | –
299.11 K | – | 1.23 ± 0.1
300.65 K | 29.86 ± 0.29 | –
302.95 K | – | 1.52 ± 0.1
303.15 K | 29.54 ± 0.29 | –
305.65 K | 29.3 ± 0.29 | –
308.07 K | – | 2.005 ± 0.1
308.15 K | 28.96 ± 0.29 | –
310.65 K | 28.73 ± 0.28 | –
312.28 K | – | 2.55 ± 0.1
313.15 K | 28.41 ± 0.28 | –

Conditions | mass density | speed of sound [m/s] | viscosity [mPa·s]
278.15 K, 100 kPa | 1008.35 ± 0.54 kg/m3 | 1373.2 ± 1.1 | 0.9347 ± 0.0087
280.65 K, 100 kPa | 1005.86 ± 0.54 kg/m3 | 1363.4 ± 1.1 | 0.905 ± 0.0085
283.15 K, 100 kPa | 1003.44 ± 0.54 kg/m3 and 1003.37 ± 0.54 kg/m3 | 1354.2 ± 1.1 | 0.8766 ± 0.0083
283.15 K, 2000 kPa | 1004.84 ± 0.54 kg/m3 | – | –
283.15 K, 5000 kPa | 1007 ± 0.54 kg/m3 | – | –
283.15 K, 7000 kPa | 1008.42 ± 0.55 kg/m3 | – | –
283.15 K, 10000 kPa | 1010.51 ± 0.55 kg/m3 | – | –
283.15 K, 15000 kPa | 1013.9 ± 0.55 kg/m3 | – | –
283.15 K, 20000 kPa | 1017.18 ± 0.55 kg/m3 | – | –
283.15 K, 25000 kPa | 1020.37 ± 0.56 kg/m3 | – | –
283.15 K, 30000 kPa | 1023.45 ± 0.56 kg/m3 | – | –
283.15 K, 35000 kPa | 1026.45 ± 0.56 kg/m3 | – | –
283.15 K, 40000 kPa | 1029.36 ± 0.57 kg/m3 | – | –
283.15 K, 45000 kPa | 1032.2 ± 0.57 kg/m3 | – | –
283.15 K, 50000 kPa | 1034.96 ± 0.58 kg/m3 | – | –
283.15 K, 55000 kPa | 1037.65 ± 0.59 kg/m3 | – | –
283.15 K, 60000 kPa | 1040.28 ± 0.6 kg/m3 | – | –
283.15 K, 65000 kPa | 1042.84 ± 0.6 kg/m3 | – | –
285.65 K, 100 kPa | 1000.87 ± 0.54 kg/m3 | 1344.7 ± 1.1 | 0.8498 ± 0.0082
288.15 K, 100 kPa | 998.47 ± 0.54 kg/m3 and 998.38 ± 0.54 kg/m3 | 1334.1 ± 1.1 | 0.8244 ± 0.008
288.15 K, 2000 kPa | 999.91 ± 0.54 kg/m3 | – | –
288.15 K, 5000 kPa | 1002.13 ± 0.54 kg/m3 | – | –
288.15 K, 7000 kPa | 1003.59 ± 0.54 kg/m3 | – | –
288.15 K, 10000 kPa | 1005.73 ± 0.54 kg/m3 | – | –
288.15 K, 15000 kPa | 1009.2 ± 0.55 kg/m3 | – | –
288.15 K, 20000 kPa | 1012.57 ± 0.55 kg/m3 | – | –
288.15 K, 25000 kPa | 1015.82 ± 0.55 kg/m3 | – | –
288.15 K, 30000 kPa | 1018.97 ± 0.56 kg/m3 | – | –
288.15 K, 35000 kPa | 1022.04 ± 0.56 kg/m3 | – | –
288.15 K, 40000 kPa | 1025.03 ± 0.56 kg/m3 | – | –
288.15 K, 45000 kPa | 1027.9 ± 0.57 kg/m3 | – | –
288.15 K, 50000 kPa | 1030.72 ± 0.58 kg/m3 | – | –
288.15 K, 55000 kPa | 1033.47 ± 0.58 kg/m3 | – | –
288.15 K, 60000 kPa | 1036.14 ± 0.59 kg/m3 | – | –
288.15 K, 65000 kPa | 1038.73 ± 0.6 kg/m3 | – | –
290.65 K, 100 kPa | 995.88 ± 0.54 kg/m3 | 1325 ± 1.1 | 0.8003 ± 0.0079
293.15 K, 100 kPa | 993.45 ± 0.54 kg/m3 and 993.38 ± 0.54 kg/m3 | 1315.3 ± 1.1 | 0.7772 ± 0.0078
293.15 K, 2000 kPa | 994.92 ± 0.54 kg/m3 | – | –
293.15 K, 5000 kPa | 997.2 ± 0.54 kg/m3 | – | –
293.15 K, 7000 kPa | 998.7 ± 0.54 kg/m3 | – | –
293.15 K, 10000 kPa | 1000.9 ± 0.54 kg/m3 | – | –
293.15 K, 15000 kPa | 1004.46 ± 0.54 kg/m3 | – | –
293.15 K, 20000 kPa | 1007.92 ± 0.55 kg/m3 | – | –
293.15 K, 25000 kPa | 1011.25 ± 0.55 kg/m3 | – | –
293.15 K, 30000 kPa | 1014.49 ± 0.55 kg/m3 | – | –
293.15 K, 35000 kPa | 1017.62 ± 0.56 kg/m3 | – | –
293.15 K, 40000 kPa | 1020.67 ± 0.56 kg/m3 | – | –
293.15 K, 45000 kPa | 1023.61 ± 0.57 kg/m3 | – | –
293.15 K, 50000 kPa | 1026.49 ± 0.57 kg/m3 | – | –
293.15 K, 55000 kPa | 1029.29 ± 0.58 kg/m3 | – | –
293.15 K, 60000 kPa | 1032.01 ± 0.58 kg/m3 | – | –
293.15 K, 65000 kPa | 1034.65 ± 0.59 kg/m3 | – | –
295.65 K, 100 kPa | 990.88 ± 0.54 kg/m3 | 1305.8 ± 1.1 | 0.7554 ± 0.0077
298.15 K, 100 kPa | 988.39 ± 0.54 kg/m3 and 988.37 ± 0.54 kg/m3 | 1295.8 ± 1.1 | 0.7345 ± 0.0076
298.15 K, 2000 kPa | 989.91 ± 0.54 kg/m3 | – | –
298.15 K, 5000 kPa | 992.26 ± 0.54 kg/m3 | – | –
298.15 K, 7000 kPa | 993.8 ± 0.54 kg/m3 | – | –
298.15 K, 10000 kPa | 996.05 ± 0.54 kg/m3 | – | –
298.15 K, 15000 kPa | 999.7 ± 0.54 kg/m3 | – | –
298.15 K, 20000 kPa | 1003.24 ± 0.54 kg/m3 | – | –
298.15 K, 25000 kPa | 1006.67 ± 0.55 kg/m3 | – | –
298.15 K, 30000 kPa | 1009.97 ± 0.55 kg/m3 | – | –
298.15 K, 35000 kPa | 1013.18 ± 0.55 kg/m3 | – | –
298.15 K, 40000 kPa | 1016.3 ± 0.56 kg/m3 | – | –
298.15 K, 45000 kPa | 1019.31 ± 0.56 kg/m3 | – | –
298.15 K, 50000 kPa | 1022.24 ± 0.57 kg/m3 | – | –
298.15 K, 55000 kPa | 1025.1 ± 0.57 kg/m3 | – | –
298.15 K, 60000 kPa | 1027.87 ± 0.58 kg/m3 | – | –
298.15 K, 65000 kPa | 1030.59 ± 0.58 kg/m3 | – | –
300.65 K, 100 kPa | 985.87 ± 0.54 kg/m3 | 1285.4 ± 1.1 | 0.7148 ± 0.0075
303.15 K, 100 kPa | 983.42 ± 0.54 kg/m3 and 983.36 ± 0.54 kg/m3 | 1276.5 ± 1.1 | 0.696 ± 0.0074
303.15 K, 2000 kPa | 984.97 ± 0.54 kg/m3 | – | –
303.15 K, 5000 kPa | 987.39 ± 0.54 kg/m3 | – | –
303.15 K, 7000 kPa | 988.98 ± 0.54 kg/m3 | – | –
303.15 K, 10000 kPa | 991.3 ± 0.54 kg/m3 | – | –
303.15 K, 15000 kPa | 995.04 ± 0.54 kg/m3 | – | –
303.15 K, 20000 kPa | 998.67 ± 0.54 kg/m3 | – | –
303.15 K, 25000 kPa | 1002.17 ± 0.54 kg/m3 | – | –
303.15 K, 30000 kPa | 1005.54 ± 0.55 kg/m3 | – | –
303.15 K, 35000 kPa | 1008.81 ± 0.55 kg/m3 | – | –
303.15 K, 40000 kPa | 1012 ± 0.55 kg/m3 | – | –
303.15 K, 45000 kPa | 1015.07 ± 0.56 kg/m3 | – | –
303.15 K, 50000 kPa | 1018.07 ± 0.56 kg/m3 | – | –
303.15 K, 55000 kPa | 1020.99 ± 0.57 kg/m3 | – | –
303.15 K, 60000 kPa | 1023.81 ± 0.57 kg/m3 | – | –
303.15 K, 65000 kPa | 1026.56 ± 0.58 kg/m3 | – | –
305.65 K, 100 kPa | 980.85 ± 0.54 kg/m3 | 1266.7 ± 1.1 | 0.678 ± 0.0073
308.15 K, 100 kPa | 978.38 ± 0.54 kg/m3 and 978.33 ± 0.54 kg/m3 | 1256.8 ± 1.1 | 0.6606 ± 0.0072
308.15 K, 2000 kPa | 979.99 ± 0.54 kg/m3 | – | –
308.15 K, 5000 kPa | 982.48 ± 0.54 kg/m3 | – | –
308.15 K, 7000 kPa | 984.11 ± 0.54 kg/m3 | – | –
308.15 K, 10000 kPa | 986.49 ± 0.54 kg/m3 | – | –
308.15 K, 15000 kPa | 990.33 ± 0.54 kg/m3 | – | –
308.15 K, 20000 kPa | 994.05 ± 0.54 kg/m3 | – | –
308.15 K, 25000 kPa | 997.63 ± 0.54 kg/m3 | – | –
308.15 K, 30000 kPa | 1001.09 ± 0.54 kg/m3 | – | –
308.15 K, 35000 kPa | 1004.45 ± 0.55 kg/m3 | – | –
308.15 K, 40000 kPa | 1007.68 ± 0.55 kg/m3 | – | –
308.15 K, 45000 kPa | 1010.84 ± 0.55 kg/m3 | – | –
308.15 K, 50000 kPa | 1013.88 ± 0.56 kg/m3 | – | –
308.15 K, 55000 kPa | 1016.86 ± 0.56 kg/m3 | – | –
308.15 K, 60000 kPa | 1019.74 ± 0.57 kg/m3 | – | –
308.15 K, 65000 kPa | 1022.56 ± 0.57 kg/m3 | – | –
310.65 K, 100 kPa | 975.82 ± 0.54 kg/m3 | 1246.5 ± 1.1 | 0.6442 ± 0.0071
313.15 K, 100 kPa | – | – | 0.6282 ± 0.007
